Test results reported in patent US11628160B2, “Compositions and methods for treating brain injury” (Azevan Pharmaceuticals, Inc., priority 2017, dated 2023).
pIC50, pKi: −log10 of the molar value.

Target: T1, human V1a receptor (Homo sapiens, UniProt P37288)
T1 construct: host or cells: CHO cells
Assay: Human vasopressin V1a receptor binding assay
Settings: hV1a CHO cell line, competition with 1 nM 3H-AVP; for pIC50: read-out: V1a Binding Affinity IC50; for pKi: read-out: V1a Ki
Procedure: EXAMPLE. Human vasopressin V1a receptor binding assay. A cell line expressing the human V1a receptor in CHO cells (henceforth referred to as the hV1a cell line) was obtained from Dr. Michael Brownstein, NIMH, Bethesda, Md., USA. The hV1a cDNA sequence is described by Thibonnier et al., Journal of Biological Chemistry, 269, 3304-3310 (1994), and the expression method was the same as described by Morel et al. (1992). The hV1a cell line was grown in alpha-MEM with 10% fetal bovine serum and 250 ug/ml G418 (Gibco, Grand Island, N.Y., USA). For competitive binding assay, hV1a cells were plated into 6-well culture plate at 1:10 dilution from a confluency flask, and maintained in culture for at least two days. Culture medium was then removed, cells were washed with 2 ml binding buffer (25 mM Hepes, 0.25% BSA, 1×DMEM, PH=7.0). To each well, 990 μl binding buffer containing 1 nM 3H-AVP was added, and followed by 10 μl series diluted Example compounds dissolved in DMSO. […] 100 nM cold AVP (Sigma) was used to assess non-specific binding. Cells were incubated for 45 minutes at 37° C., assay mixture was removed and each well was washed three times with PBS (pH=7.4). 1 ml 2% SDS was added per well and plates were let sit for 30 minutes. The whole content in a well was transferred to a scintillation vial. Each well was rinsed with 0.5 ml PBS which was then added to the corresponding vial. Scintillation fluid (Ecoscint, National Diagnostics, Atlanta, Ga.) was then added at 3 ml per vial. Samples were counted in a liquid scintillation counter (Beckman LS3801). IC50 values were calculated by Prism Curve fitting software.
All of the alkanedioic esters and amides exemplified in the foregoing examples dissolved in DMSO were tested in this assay. Binding curves were generated according to methods described by Thibonnier et al. (1994). [^3H]-AVP was added to the hV1a cell cultures followed by 10-fold dilutions of each test compound.

T1 sequence (P37288 whole entry): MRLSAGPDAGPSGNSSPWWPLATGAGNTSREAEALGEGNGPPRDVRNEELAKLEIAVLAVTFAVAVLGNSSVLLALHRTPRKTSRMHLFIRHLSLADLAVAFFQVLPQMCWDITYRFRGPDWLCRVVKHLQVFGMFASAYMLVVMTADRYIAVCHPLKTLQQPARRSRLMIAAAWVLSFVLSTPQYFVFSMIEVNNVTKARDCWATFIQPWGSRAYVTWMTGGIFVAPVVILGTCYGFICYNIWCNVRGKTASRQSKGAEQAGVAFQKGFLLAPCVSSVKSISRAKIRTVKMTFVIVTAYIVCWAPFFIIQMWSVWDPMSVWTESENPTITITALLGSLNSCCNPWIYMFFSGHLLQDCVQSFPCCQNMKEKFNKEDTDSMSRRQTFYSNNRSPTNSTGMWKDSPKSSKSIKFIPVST

Compound | pIC50 | pKi
COc1cc(OC)cc(C(C)(C)NC(=O)C(CCC(=O)N2CCN(C3CCCCC3)CC2)N2C(=O)C(N3C(=O)OCC3c3ccccc3)C2C=Cc2ccccc2)c1 (stereo not shown) [Example 218] | 8.11 | 8.33
O=C(NCc1cccc(Cl)c1)C(CCC(=O)N1CCN(C2CCCCC2)CC1)N1C(=O)C(N2C(=O)OCC2c2ccccc2)C1C=Cc1ccccc1 (stereo not shown) [Example 187] | 9.00 | 9.18
CN(Cc1cccc(C(F)(F)F)c1)C(=O)C(CCC(=O)N1CCN(C2CCCCC2)CC1)N1C(=O)C(N2C(=O)OCC2c2ccccc2)C1C=Cc1ccccc1 (stereo not shown) [Example 205] | 9.47 | 9.68
O=C(NCc1cc(Cl)cc(Cl)c1)C(CCC(=O)N1CCN(C2CCCCC2)CC1)N1C(=O)C(N2C(=O)OCC2c2ccccc2)C1C=Cc1ccccc1 (stereo not shown) [Example 174] | 8.84 | 9.05
N#Cc1cccc(C=CC2C(N3C(=O)OCC3c3ccccc3)C(=O)N2C(CCC(=O)N2CCN(C3CCCCC3)CC2)C(=O)NC2CCCc3ccccc32)c1 (stereo not shown) [Example 248] | 8.28 | 8.48
O=C(NC1CCCc2ccccc21)C(CCC(=O)N1CCN(C2CCCCC2)CC1)N1C(=O)C(N2C(=O)OCC2c2ccccc2)C1C=Cc1cccc(C(F)(F)F)c1 (stereo not shown) [Example 246] | 8.68 | 8.89
O=C(NC1CCCc2ccccc21)C(CCC(=O)N1CCN(C2CCCCC2)CC1)N1C(=O)C(N2C(=O)OCC2c2ccccc2)C1C=Cc1cc(Cl)cc(Cl)c1 (stereo not shown) [Example 252] | 8.74 | 8.96
Cc1ccccc1C(C)(C)NC(=O)C(CCC(=O)N1CCN(C2CCCCC2)CC1)N1C(=O)C(N2C(=O)OCC2c2ccccc2)C1C=Cc1ccccc1 (stereo not shown) [Example 221] | 8.29 | –
O=C(NCc1cccc(C(F)(F)F)c1F)C(CCC(=O)N1CCN(C2CCCCC2)CC1)N1C(=O)C(N2C(=O)OCC2c2ccccc2)C1C=Cc1ccccc1 (stereo not shown) [Example 180] | 9.48 | 9.70
O=C(NCc1cccc(Br)c1)C(CCC(=O)N1CCN(C2CCCCC2)CC1)N1C(=O)C(N2C(=O)OCC2c2ccccc2)C1C=Cc1ccccc1 (stereo not shown) [Example 190] | 9.06 | 9.27
O=C(NCc1cccc(C(F)(F)F)c1)C(CC(=O)N1CCN(N2CCCC2)CC1)N1C(=O)C(N2C(=O)OCC2c2ccccc2)C1C=Cc1ccccc1 (stereo not shown) [Example 47] | ~7.30 | –
O=C(NC1(c2ccccc2)CCCC1)C(CCC(=O)N1CCN(C2CCCCC2)CC1)N1C(=O)C(N2C(=O)OCC2c2ccccc2)C1C=Cc1ccccc1 (stereo not shown) [Example 217] | 8.50 | 8.71
O=C(NC1Cc2ccccc2C1)C(CCC(=O)N1CCN(C2CCCCC2)CC1)N1C(=O)C(N2C(=O)OCC2c2ccccc2)C1C=Cc1ccccc1 (stereo not shown) [Example 221P] | 8.77 | 8.96
O=C(NC(c1ccccc1)C(F)(F)F)C(CC(=O)N1CCC(N2CCCCC2)CC1)N1C(=O)C(N2C(=O)OCC2c2ccccc2)C1CCc1ccccc1 (stereo not shown) [Example 626] | – | 9.57
O=C(NCc1cccc(C(F)(F)F)c1)[C@H](CC(=O)N1CCN(C2CCCCC2)CC1)N1C(=O)[C@@H](N2C(=O)OC[C@@H]2c2ccccc2)[C@H]1/C=C/c1ccccc1 [Example 66] | 7.30 | –
COc1ccccc1CNC(=O)C(CCC(=O)N1CCN(C2CCCCC2)CC1)N1C(=O)C(N2C(=O)OCC2c2ccccc2)C1C=Cc1ccccc1 (stereo not shown) [Example 220] | 8.28 | 8.49
O=C(NC1CCCc2ccccc21)C(CCC(=O)N1CCN(C2CCCCC2)CC1)N1C(=O)C(N2C(=O)OCC2c2cccc(Cl)c2)C1C=Cc1cccc(Cl)c1 (stereo not shown) [Example 251] | 9.30 | 9.52
O=C(NCc1ccccn1)C(CCC(=O)N1CCN(C2CCCCC2)CC1)N1C(=O)C(N2C(=O)OCC2c2ccccc2)C1C=Cc1ccccc1 (stereo not shown) [Example 208] | 7.79 | 8.00
CCN1CCN(C(=O)CCC(C(=O)NC2(c3ccccc3)CCCC2)N2C(=O)C(N3C(=O)OCC3c3ccccc3)C2C=Cc2ccccc2)CC1 (stereo not shown) [Example 239] | 8.18 | 8.40
O=C(NCc1cc(C(F)(F)F)ccc1F)C(CCC(=O)N1CCN(C2CCCCC2)CC1)N1C(=O)C(N2C(=O)OCC2c2ccccc2)C1C=Cc1ccccc1 (stereo not shown) [Example 177] | 9.17 | 9.39
COc1ccc(OC)c(CNC(=O)C(CCC(=O)N2CCN(C3CCCCC3)CC2)N2C(=O)C(N3C(=O)OCC3c3ccccc3)C2C=Cc2ccccc2)c1 (stereo not shown) [Example 219] | 9.20 | 9.41

Compound | pIC50 | pKi
CCN1CCCC1CNC(=O)CCC(C(=O)NC1CCCc2ccccc21)N1C(=O)C(N2C(=O)OCC2c2ccccc2)C1C=Cc1ccccc1 (stereo not shown) [Example 221AI] | ~7.30 | –
CN(Cc1cccc(C(F)(F)F)c1)C(=O)C(CC(=O)N1CCC(N2CCCCC2)CC1)N1C(=O)C(N2C(=O)OCC2c2ccccc2)C1CCc1cccc(Br)c1 (stereo not shown) [Example 617] | – | 9.16
O=C(NCc1cccc(C(F)(F)F)c1)C(CCC(=O)N1CCN(C2CCCCC2)CC1)N1C(=O)C(N2C(=O)OCC2c2ccccc2)C1C=Cc1ccccc1 (stereo not shown) [Example 120H] | 8.56 | 8.77
COc1cc(CNC(=O)C(CCC(=O)N2CCN(C3CCCCC3)CC2)N2C(=O)C(N3C(=O)OCC3c3ccccc3)C2C=Cc2ccccc2)cc(OC)c1 (stereo not shown) [Example 201] | 7.98 | 8.19
Cc1ccc(C2(NC(=O)C(CCC(=O)N3CCN(C4CCCCC4)CC3)N3C(=O)C(N4C(=O)OCC4c4ccccc4)C3C=Cc3ccccc3)CC2)cc1 (stereo not shown) [Example 221AP] | – | 8.42
O=C(NCCc1ccccc1)C(CCC(=O)N1CCN(C2CCCCC2)CC1)N1C(=O)C(N2C(=O)OCC2c2ccccc2)C1C=Cc1ccccc1 (stereo not shown) [Example 200] | 8.29 | 8.51
O=C(NCc1ccccc1C(F)(F)F)C(CCC(=O)N1CCN(C2CCCCC2)CC1)N1C(=O)C(N2C(=O)OCC2c2ccccc2)C1C=Cc1ccccc1 (stereo not shown) [Example 182] | 8.82 | 9.03
CC(C)(NC(=O)C(CCC(=O)N1CCN(C2CCCCC2)CC1)N1C(=O)C(N2C(=O)OCC2c2ccccc2)C1C=Cc1ccccc1)c1ccccc1 (stereo not shown) [Example 204] | 8.22 | 8.43
O=C(NC1CCCc2ccccc21)C(CCC(=O)N1CCN(C2CCCCC2)CC1)N1C(=O)C(N2C(=O)OCC2c2ccccc2)C1C=Cc1cccc([N+](=O)[O-])c1 (stereo not shown) [Example 249] | 8.77 | 9.00
O=C(NCc1cccc([N+](=O)[O-])c1)C(CCC(=O)N1CCN(C2CCCCC2)CC1)N1C(=O)C(N2C(=O)OCC2c2ccccc2)C1C=Cc1ccccc1 (stereo not shown) [Example 189] | 8.77 | 8.98
O=C(NCc1cccc(C(F)(F)F)c1)C(CC(=O)N1CCN(N2CCCC2)CC1)N1C(=O)C(N2C(=O)OCC2c2ccccc2)C1C=Cc1ccccc1 (stereo not shown) [Example 134B] | 7.35 | 7.56
CC(NC(=O)C(CC(=O)N1CCC(N2CCCCC2)CC1)N1C(=O)C(N2C(=O)OCC2c2cccc(Cl)c2)C1C=Cc1ccccc1)c1ccccc1 (stereo not shown) [Example 256] | 8.55 | 8.77
O=C(NCc1ccncc1)C(CCC(=O)N1CCN(C2CCCCC2)CC1)N1C(=O)C(N2C(=O)OCC2c2ccccc2)C1C=Cc1ccccc1 (stereo not shown) [Example 210] | 7.53 | 7.74
CCCCN(Cc1ccccc1)C(=O)[C@H](CCC(=O)N1CCN(C2CCCCC2)CC1)N1C(=O)[C@@H](N2C(=O)OC[C@@H]2c2ccccc2)[C@H]1/C=C/c1ccccc1 [Example 198] | ~7.00 | –
O=C(NC1(c2ccccc2)CC1)C(CCC(=O)N1CCN(C2CCCCC2)CC1)N1C(=O)C(N2C(=O)OCC2c2ccccc2)C1C=Cc1ccccc1 (stereo not shown) [Example 207] | 8.35 | 8.56
O=C(NCc1cccc(C(F)(F)F)c1)[C@H](CCC(=O)N1CCN(N2CCCC2)CC1)N1C(=O)[C@@H](N2C(=O)OC[C@@H]2c2ccccc2)[C@H]1/C=C/c1ccccc1 [Example 91] | 8.49 | 8.70
O=C(NC1(c2ccccc2)CCCC1)C(CCC(=O)N1CCN(Cc2ccccc2)CC1)N1C(=O)C(N2C(=O)OCC2c2ccccc2)C1C=Cc1ccccc1 (stereo not shown) [Example 240] | 7.60 | 7.81
O=C(NCc1cccnc1)C(CCC(=O)N1CCN(C2CCCCC2)CC1)N1C(=O)C(N2C(=O)OCC2c2ccccc2)C1C=Cc1ccccc1 (stereo not shown) [Example 209] | 7.80 | 8.01
O=C(NC1CCCc2ccccc21)C(CCC(=O)N1CCN(C2CCCCC2)CC1)N1C(=O)C(N2C(=O)OCC2c2ccccc2)C1C=Cc1ccccc1Cl (stereo not shown) [Example 250] | 8.19 | 8.40
O=C(NC1(c2ccccc2)CCCC1)C(CCC(=O)N1CCN(C2CCCCC2)CC1)N1C(=O)C(N2C(=O)OCC2c2ccccc2)C1C=Cc1cccc(Cl)c1 (stereo not shown) [Example 244] | 8.47 | 8.68
CC(NC(=O)C(CC(=O)N1CCC(N2CCCCC2)CC1)N1C(=O)C(N2C(=O)OCC2c2ccccc2)C1CCc1cccc([N+](=O)[O-])c1)c1ccccc1 (stereo not shown) [Example 597] | 8.21 | 8.42
